How the values were obtained:
Assay in all cases: Large panel kinase profiling
Type in all cases: biochemical
Settings in all cases: 1 μM test article, 1 mM ATP
RAF1 = RAF1 (Homo sapiens, UniProt P04049)
How it was run: (§1)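 Kinase activity was followed with the PhosphoSens CSox-Sensor platform, testing compound at 1 μM in the presence of 1 mM ATP. Reactions ran at 30° C. and fluorescence (Ex 360 nm/Em 485 nm) was read kinetically every 1 min.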

EIF2AK1/HRI = target: T1, EIF2AK1/HRI (Homo sapiens, UniProt Q9BQI3)
T1 construct: AssayQuant Technologies, Inc. (service laboratory)
How it was run: as §1

TYRO3 = target: T2, TYRO3 (Homo sapiens, UniProt Q06418)
T2 construct: AssayQuant Technologies, Inc. (contract laboratory that ran the panel)
T2 sequence (Q06418 41-890): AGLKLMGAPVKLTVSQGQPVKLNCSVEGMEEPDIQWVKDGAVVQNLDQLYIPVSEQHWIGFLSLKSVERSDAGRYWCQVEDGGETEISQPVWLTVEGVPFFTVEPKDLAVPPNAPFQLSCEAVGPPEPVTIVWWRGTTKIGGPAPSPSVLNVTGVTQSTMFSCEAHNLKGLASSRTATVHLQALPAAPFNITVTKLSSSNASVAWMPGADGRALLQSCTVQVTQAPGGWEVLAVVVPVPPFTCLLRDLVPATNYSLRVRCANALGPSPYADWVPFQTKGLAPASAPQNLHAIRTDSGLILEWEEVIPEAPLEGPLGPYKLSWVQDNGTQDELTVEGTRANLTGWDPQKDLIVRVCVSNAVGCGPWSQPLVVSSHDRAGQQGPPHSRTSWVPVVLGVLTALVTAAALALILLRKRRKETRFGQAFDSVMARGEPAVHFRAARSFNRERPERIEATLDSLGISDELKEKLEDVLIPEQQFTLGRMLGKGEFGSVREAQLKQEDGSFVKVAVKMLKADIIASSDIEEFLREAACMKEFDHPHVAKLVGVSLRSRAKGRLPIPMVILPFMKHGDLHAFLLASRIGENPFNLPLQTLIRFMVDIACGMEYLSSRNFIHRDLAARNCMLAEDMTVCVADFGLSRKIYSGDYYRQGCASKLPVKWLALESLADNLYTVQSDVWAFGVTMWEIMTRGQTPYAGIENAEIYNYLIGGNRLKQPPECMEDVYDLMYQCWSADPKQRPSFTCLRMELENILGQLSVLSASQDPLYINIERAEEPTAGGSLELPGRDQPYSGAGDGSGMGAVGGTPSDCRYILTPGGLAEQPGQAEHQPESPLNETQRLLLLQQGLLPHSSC
How it was run: as §1

IRAK4 = target: T3, IRAK4 (Homo sapiens, UniProt Q9NWZ3)
T3 sequence (Q9NWZ3 1-460): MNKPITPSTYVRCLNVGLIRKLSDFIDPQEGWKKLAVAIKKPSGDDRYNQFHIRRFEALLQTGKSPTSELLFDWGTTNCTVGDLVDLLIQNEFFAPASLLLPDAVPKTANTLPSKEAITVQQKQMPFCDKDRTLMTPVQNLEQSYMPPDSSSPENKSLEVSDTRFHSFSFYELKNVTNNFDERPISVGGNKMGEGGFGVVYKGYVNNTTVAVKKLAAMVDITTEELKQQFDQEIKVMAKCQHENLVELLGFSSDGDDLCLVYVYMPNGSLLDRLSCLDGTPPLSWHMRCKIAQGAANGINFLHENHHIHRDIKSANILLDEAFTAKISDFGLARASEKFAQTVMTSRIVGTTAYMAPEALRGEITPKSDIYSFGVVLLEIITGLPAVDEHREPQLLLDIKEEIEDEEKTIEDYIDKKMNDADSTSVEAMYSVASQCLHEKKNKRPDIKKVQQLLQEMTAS
How it was run: as §1

INSR = target: T4, INSR (Homo sapiens, UniProt P06213)
T4 construct: AssayQuant Technologies, Inc. (service provider)
T4 sequence (P06213 28-1382, species assumed): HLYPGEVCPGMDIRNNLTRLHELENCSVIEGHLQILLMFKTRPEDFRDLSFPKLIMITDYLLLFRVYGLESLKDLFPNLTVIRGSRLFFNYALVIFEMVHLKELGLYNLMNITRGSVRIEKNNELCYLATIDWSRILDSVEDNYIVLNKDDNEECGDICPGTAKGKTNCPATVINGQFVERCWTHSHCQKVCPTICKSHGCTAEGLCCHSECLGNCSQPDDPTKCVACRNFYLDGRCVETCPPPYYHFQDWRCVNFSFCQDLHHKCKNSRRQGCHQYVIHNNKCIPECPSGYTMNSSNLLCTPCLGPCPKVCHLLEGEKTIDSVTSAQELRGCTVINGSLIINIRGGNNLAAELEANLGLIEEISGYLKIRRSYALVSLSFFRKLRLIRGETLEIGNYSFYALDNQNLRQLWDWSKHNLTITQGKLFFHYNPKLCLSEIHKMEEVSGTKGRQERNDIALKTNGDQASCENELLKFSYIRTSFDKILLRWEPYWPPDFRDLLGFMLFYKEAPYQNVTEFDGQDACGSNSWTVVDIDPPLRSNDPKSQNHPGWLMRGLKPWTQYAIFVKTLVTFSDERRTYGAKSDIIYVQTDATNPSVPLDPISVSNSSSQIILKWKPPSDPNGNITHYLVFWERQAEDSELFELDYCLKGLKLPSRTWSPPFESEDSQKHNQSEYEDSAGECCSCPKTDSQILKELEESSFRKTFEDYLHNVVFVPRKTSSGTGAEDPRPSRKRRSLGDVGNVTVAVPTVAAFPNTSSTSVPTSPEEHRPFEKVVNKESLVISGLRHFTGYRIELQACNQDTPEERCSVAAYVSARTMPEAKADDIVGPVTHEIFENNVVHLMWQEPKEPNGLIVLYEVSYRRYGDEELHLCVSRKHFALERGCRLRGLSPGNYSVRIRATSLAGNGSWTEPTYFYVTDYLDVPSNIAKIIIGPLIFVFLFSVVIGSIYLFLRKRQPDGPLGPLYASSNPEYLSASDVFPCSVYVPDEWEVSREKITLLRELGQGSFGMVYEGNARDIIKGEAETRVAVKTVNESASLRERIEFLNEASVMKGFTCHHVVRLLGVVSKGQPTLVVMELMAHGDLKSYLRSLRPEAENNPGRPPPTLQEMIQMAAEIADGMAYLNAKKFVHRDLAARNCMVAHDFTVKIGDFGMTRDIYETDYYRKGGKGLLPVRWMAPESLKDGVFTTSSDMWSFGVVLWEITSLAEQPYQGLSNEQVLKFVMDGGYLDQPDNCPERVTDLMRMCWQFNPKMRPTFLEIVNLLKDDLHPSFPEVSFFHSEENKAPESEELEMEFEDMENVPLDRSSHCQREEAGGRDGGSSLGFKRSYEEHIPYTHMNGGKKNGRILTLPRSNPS
How it was run: as §1

FES = FES (Homo sapiens, UniProt P07332)
FES, sequence (P07332 whole entry, species assumed): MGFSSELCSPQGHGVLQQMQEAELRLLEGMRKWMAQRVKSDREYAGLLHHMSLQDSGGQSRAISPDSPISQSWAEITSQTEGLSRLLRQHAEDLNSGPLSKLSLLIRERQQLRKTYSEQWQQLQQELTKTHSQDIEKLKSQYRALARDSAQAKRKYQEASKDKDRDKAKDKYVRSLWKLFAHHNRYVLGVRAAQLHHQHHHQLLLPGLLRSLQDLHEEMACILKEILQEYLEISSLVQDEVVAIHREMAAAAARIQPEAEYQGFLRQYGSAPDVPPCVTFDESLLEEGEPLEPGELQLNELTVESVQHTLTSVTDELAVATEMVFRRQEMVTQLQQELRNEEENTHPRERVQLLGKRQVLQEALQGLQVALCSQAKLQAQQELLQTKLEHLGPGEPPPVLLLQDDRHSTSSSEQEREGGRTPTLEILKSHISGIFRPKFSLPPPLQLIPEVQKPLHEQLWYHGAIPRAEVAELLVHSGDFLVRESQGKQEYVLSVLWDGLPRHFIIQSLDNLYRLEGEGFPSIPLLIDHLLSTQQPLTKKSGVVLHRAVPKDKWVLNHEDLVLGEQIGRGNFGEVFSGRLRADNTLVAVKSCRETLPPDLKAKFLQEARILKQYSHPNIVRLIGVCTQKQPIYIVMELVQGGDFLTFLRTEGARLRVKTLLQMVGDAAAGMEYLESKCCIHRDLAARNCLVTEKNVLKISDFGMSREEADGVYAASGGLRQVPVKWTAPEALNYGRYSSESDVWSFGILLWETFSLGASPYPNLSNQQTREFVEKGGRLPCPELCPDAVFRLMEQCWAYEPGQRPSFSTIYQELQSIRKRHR
How it was run: as §1

CDK1/B1 = target: T5, CDK1/B1 (Homo sapiens, UniProt P06493)
T5 construct: AssayQuant Technologies, Inc. (ran the panel)
How it was run: as §1

SK3 = target: T6, SK3 (Homo sapiens, UniProt Q9Y2K2)
T6 construct: AssayQuant Technologies, Inc. (contract assay)
T6 sequence (Q9Y2K2 whole entry): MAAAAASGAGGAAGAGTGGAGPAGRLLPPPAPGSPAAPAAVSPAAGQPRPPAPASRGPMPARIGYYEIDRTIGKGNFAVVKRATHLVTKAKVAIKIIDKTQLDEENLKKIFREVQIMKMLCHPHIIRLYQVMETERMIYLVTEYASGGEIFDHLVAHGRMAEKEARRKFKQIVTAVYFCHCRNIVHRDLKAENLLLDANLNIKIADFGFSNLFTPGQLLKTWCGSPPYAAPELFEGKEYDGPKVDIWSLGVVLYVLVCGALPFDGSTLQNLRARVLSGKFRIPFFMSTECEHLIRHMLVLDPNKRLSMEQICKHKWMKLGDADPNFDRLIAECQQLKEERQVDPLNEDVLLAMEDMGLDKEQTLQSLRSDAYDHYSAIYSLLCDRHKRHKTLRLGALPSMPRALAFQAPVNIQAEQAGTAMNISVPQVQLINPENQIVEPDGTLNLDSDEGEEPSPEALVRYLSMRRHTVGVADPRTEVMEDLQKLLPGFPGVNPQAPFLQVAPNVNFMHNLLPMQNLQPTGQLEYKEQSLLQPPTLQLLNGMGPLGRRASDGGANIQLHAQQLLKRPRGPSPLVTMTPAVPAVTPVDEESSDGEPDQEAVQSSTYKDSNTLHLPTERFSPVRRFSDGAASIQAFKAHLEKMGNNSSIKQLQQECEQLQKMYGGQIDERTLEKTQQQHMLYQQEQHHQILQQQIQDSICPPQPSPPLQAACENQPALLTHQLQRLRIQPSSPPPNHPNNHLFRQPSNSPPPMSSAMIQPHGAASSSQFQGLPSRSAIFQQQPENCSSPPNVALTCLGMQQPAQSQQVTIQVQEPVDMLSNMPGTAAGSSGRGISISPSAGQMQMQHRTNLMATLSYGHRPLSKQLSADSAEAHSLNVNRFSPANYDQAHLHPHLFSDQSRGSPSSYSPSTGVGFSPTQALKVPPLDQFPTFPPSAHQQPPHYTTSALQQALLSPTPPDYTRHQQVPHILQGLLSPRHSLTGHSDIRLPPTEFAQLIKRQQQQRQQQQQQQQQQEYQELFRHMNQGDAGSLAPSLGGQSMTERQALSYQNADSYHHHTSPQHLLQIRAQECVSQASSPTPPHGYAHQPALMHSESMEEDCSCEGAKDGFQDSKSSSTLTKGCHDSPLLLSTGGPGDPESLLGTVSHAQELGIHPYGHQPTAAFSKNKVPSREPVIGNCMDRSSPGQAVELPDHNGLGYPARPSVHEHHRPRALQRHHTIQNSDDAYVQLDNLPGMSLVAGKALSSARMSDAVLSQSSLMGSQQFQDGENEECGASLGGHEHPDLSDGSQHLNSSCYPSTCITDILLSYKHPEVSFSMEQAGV
How it was run: as §1

LIMK1 = LIMK1 (Homo sapiens, UniProt P53667)
LIMK1, sequence (P53667 whole entry, species assumed): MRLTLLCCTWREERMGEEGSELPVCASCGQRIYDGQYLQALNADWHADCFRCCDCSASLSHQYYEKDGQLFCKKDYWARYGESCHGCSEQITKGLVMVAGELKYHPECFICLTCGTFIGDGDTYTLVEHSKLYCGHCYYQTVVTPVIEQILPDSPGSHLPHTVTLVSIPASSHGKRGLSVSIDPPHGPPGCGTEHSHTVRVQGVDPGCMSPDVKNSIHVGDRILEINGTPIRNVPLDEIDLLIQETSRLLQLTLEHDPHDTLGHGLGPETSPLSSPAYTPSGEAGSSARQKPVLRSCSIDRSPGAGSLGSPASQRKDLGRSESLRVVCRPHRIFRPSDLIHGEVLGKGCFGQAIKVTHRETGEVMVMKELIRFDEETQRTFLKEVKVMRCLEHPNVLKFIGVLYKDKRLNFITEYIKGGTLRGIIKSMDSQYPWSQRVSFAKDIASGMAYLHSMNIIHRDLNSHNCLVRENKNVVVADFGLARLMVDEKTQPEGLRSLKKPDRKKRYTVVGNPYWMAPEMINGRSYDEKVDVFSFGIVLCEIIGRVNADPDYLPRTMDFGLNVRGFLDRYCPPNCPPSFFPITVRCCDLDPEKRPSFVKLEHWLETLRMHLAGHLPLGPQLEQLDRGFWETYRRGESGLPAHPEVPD
How it was run: as §1

JAK1(JH1) = target: T7, JAK1(JH1) (Homo sapiens, UniProt P23458)
T7 construct: JAK1(JH1)
T7 sequence (P23458 875-1153 limits assumed, species assumed): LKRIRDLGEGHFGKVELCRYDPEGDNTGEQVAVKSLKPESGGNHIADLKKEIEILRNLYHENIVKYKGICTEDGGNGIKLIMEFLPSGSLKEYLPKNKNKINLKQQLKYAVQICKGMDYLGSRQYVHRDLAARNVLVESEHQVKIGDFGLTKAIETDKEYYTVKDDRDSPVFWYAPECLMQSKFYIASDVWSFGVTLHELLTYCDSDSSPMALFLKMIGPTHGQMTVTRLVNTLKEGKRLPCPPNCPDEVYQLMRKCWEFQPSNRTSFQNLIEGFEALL
How it was run: as §1

RAF1, sequence (P04049 whole entry, species assumed): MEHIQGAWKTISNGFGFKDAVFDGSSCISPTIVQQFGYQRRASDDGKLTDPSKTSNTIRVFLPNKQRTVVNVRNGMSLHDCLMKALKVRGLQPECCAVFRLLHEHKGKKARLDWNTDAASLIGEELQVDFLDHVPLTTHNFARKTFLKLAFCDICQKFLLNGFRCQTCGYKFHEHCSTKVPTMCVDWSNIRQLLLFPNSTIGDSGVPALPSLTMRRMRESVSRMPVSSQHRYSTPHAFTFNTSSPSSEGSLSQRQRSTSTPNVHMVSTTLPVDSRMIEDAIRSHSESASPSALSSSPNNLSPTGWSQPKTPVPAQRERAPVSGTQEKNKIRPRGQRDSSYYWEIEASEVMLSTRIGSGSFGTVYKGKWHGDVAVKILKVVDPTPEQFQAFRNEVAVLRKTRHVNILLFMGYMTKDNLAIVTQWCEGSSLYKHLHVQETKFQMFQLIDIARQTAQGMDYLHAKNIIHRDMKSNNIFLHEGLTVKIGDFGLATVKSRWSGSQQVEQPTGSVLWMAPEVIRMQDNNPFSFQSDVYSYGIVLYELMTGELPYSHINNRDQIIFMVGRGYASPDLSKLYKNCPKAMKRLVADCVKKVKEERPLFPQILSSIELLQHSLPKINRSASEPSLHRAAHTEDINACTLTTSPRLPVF

Structure (SMILES) | inhibition at 1 µM (RAF1) [%] | inhibition at 1 µM (EIF2AK1/HRI) [%] | inhibition at 1 µM (TYRO3) [%] | inhibition at 1 µM (IRAK4) [%] | inhibition at 1 µM (INSR) [%] | inhibition at 1 µM (FES) [%] | inhibition at 1 µM (CDK1/B1) [%] | inhibition at 1 µM (SK3) [%] | inhibition at 1 µM (LIMK1) [%] | inhibition at 1 µM (JAK1(JH1)) [%]
C=CC(=O)N1CCCC(c2c(F)cc(C(N)=O)c3[nH]c4c(c23)CCCCC4)C1 (single isomer, unassigned) [Compound 5-6] | 3.7 | -6.1 | 2.4 | -4.7 | 10.3 | 24.5 | -13.7 | 5.3 | -7.2 | 1.3
C=CC(=O)N1CCC[C@@H](c2c(F)cc(C(N)=O)c3[nH]c4c(c23)CC2(CC4)CC2)C1 [Compound 6-2, (S)-5-(1-acryloylpiperidin-3-yl)-6-fluoro-1,2,4,9-tetrahydrospiro[carbazole-3,1′-cyclopropane]-8-carboxamide] | 1 | -34.9 | 14.7 | 4.1 | -6.6 | -33 | -9.5 | 14.7 | -14.7 | 25.6
C=CC(=O)N1CCC[C@@H](c2c(F)cc(C(N)=O)c3[nH]c4c(c23)CCC4)C1 [Compound 10-2, (S)-8-(1-acryloylpiperidin-3-yl)-7-fluoro-1,2,3,4-tetrahydrocyclo-penta[b]indole-5-carboxamide] | -3.1 | -89.5 | 10.1 | -9.2 | -6 | -31.2 | -3.8 | 11.6 | -10.7 | 1.9
